For the first assay, the system named is Pseudoperonospora cubensis (downy mildew). In words: Greenhouse Test 1, foliar spray fungicide screen (DOWN MDEW), host squash. The class given is in vivo. As to conditions: disease control rating, 400 ppm (+++ at 100 ppm).
Take `Fc1cccc2c(OCCc3cccc4ccccc34)ncnc12` [Example 141, 8-fluoro-4-[2-(1-naphthalenyl)ethoxy]quinazoline]: the “DOWN MDEW” value is “+ (+ = 20-89% control at 400 ppm)”.
For the molecule `CCC(COc1ncnc2ccccc12)c1ccc(-c2ccccc2)cc1` (centres unmarked) [Example 142, 4-[2-(1,1'-biphenyl)-4-ylbutoxy]quinazoline], the “DOWN MDEW” value was “- (- = 0-19% control at 400 ppm)”.
On the same count and under the same terms, with `CC(C)c1ccc(CCCOc2ncnc3ccccc23)cc1` [Example 143, 4-[3-[4-(1-methylethyl)phenyl]propoxy]quinazoline] the entry was “++ (++ = 90-100% control at 400 ppm)”.
The same measure, in the same setting: with `Fc1ccc(-c2ccc(CCOc3ncnc4ccccc34)cc2)cc1` [Example 144, 4-[2-(4'-fluoro-1,1'-biphenyl)-4-ylethoxy]quinazoline] the entry was “+++ (+++ = 90-100% control at 100 ppm)”; with `FC(F)(F)c1cccc(C(F)(F)F)c1CCOc1ncnc2ccccc12` [Example 145, 4-[2-[2,6-bis(trifluoromethyl)phenyl]ethoxy]quinazoline], “++ (++ = 90-100% control at 400 ppm)”.

Another assay has as its system Twospotted spider mites (Tetranychus urticae Koch). The assay can be described thus: Mite/insect screen, sprayed squash cotyledons (SM). As to conditions: Tetranychus urticae, percent mortality; spray rate 200 ppm; read-out: SM RESULTS %. The class given is in vivo. An outline of the steps:
(§1)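 Mortality and phytotoxicity read after standard exposure periods on sprayed squash: cotyledons for melon aphids and twospotted spider mites, excised leaves placed with southern armyworm larvae. Spray solutions were water dilutions of acetone/alcohol stocks containing TOXIMUL R and S emulsifiers, applied to runoff at 10 psi and air-dried one hour.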
With `CC(C)c1ccc(CCCOc2ncnc3ccccc23)cc1` [Example 143, 4-[3-[4-(1-methylethyl)phenyl]propoxy]quinazoline], the mortality at 200 ppm was found to be 0%.
`FC(F)(F)c1cccc(C(F)(F)F)c1CCOc1ncnc2ccccc12` [Example 145, 4-[2-[2,6-bis(trifluoromethyl)phenyl]ethoxy]quinazoline]: the mortality at 200 ppm came to 80%.

Still in this assay, the particulars now being: Tetranychus urticae, percent mortality; spray rate 400 ppm; read-out: SM RESULTS %.
As for `Fc1cccc2c(OCCc3cccc4ccccc34)ncnc12` [Example 141, 8-fluoro-4-[2-(1-naphthalenyl)ethoxy]quinazoline], the mortality at 400 ppm was 0%.
`CCC(COc1ncnc2ccccc12)c1ccc(-c2ccccc2)cc1` (centres unmarked) [Example 142, 4-[2-(1,1'-biphenyl)-4-ylbutoxy]quinazoline]: the mortality at 400 ppm worked out at 60%.
`CC(C)c1ccc(CCCOc2ncnc3ccccc23)cc1` [Example 143, 4-[3-[4-(1-methylethyl)phenyl]propoxy]quinazoline]: the mortality at 400 ppm worked out at 0%.
`Fc1ccc(-c2ccc(CCOc3ncnc4ccccc34)cc2)cc1` [Example 144, 4-[2-(4'-fluoro-1,1'-biphenyl)-4-ylethoxy]quinazoline]: the mortality at 400 ppm came out at 100%.
Consider `FC(F)(F)c1cccc(C(F)(F)F)c1CCOc1ncnc2ccccc12` [Example 145, 4-[2-[2,6-bis(trifluoromethyl)phenyl]ethoxy]quinazoline], for which the mortality at 400 ppm turned out to be 0%.

For another assay, the system named is Puccinia recondita tritici (leaf rust). The assay can be described thus: Greenhouse Test 1, foliar spray fungicide screen (LEAF RUST), host wheat. The assay is classed as in vivo. Conditions: disease control rating, 400 ppm (+++ at 100 ppm).
Consider `Fc1cccc2c(OCCc3cccc4ccccc34)ncnc12` [Example 141, 8-fluoro-4-[2-(1-naphthalenyl)ethoxy]quinazoline], for which the “LEAF RUST” value was “+ (+ = 20-89% control at 400 ppm)”.
For the molecule `CCC(COc1ncnc2ccccc12)c1ccc(-c2ccccc2)cc1` (centres unmarked) [Example 142, 4-[2-(1,1'-biphenyl)-4-ylbutoxy]quinazoline], the “LEAF RUST” value is “+ (+ = 20-89% control at 400 ppm)”.
Same read-out and setting: the same measure for `CC(C)c1ccc(CCCOc2ncnc3ccccc23)cc1` [Example 143, 4-[3-[4-(1-methylethyl)phenyl]propoxy]quinazoline]: “- (- = 0-19% control at 400 ppm)”; for `Fc1ccc(-c2ccc(CCOc3ncnc4ccccc34)cc2)cc1` [Example 144, 4-[2-(4'-fluoro-1,1'-biphenyl)-4-ylethoxy]quinazoline]: “+++ (+++ = 90-100% control at 100 ppm)”.
Take `FC(F)(F)c1cccc(C(F)(F)F)c1CCOc1ncnc2ccccc12` [Example 145, 4-[2-[2,6-bis(trifluoromethyl)phenyl]ethoxy]quinazoline]: the “LEAF RUST” value is recorded as “+ (+ = 20-89% control at 400 ppm)”.

Another assay concerns Pyricularia oryzae (rice blast).
Assay: not given
The class given is in vivo. As to conditions: disease control rating, foliar spray, host rice; 400 ppm (+++ at 100 ppm).
With `Fc1cccc2c(OCCc3cccc4ccccc34)ncnc12` [Example 141, 8-fluoro-4-[2-(1-naphthalenyl)ethoxy]quinazoline], the “RICE BLAST” value is on record as “+ (+ = 20-89% control at 400 ppm)”.
As to `CCC(COc1ncnc2ccccc12)c1ccc(-c2ccccc2)cc1` (centres unmarked) [Example 142, 4-[2-(1,1'-biphenyl)-4-ylbutoxy]quinazoline], the “RICE BLAST” value is on record as “++ (++ = 90-100% control at 400 ppm)”.
With `CC(C)c1ccc(CCCOc2ncnc3ccccc23)cc1` [Example 143, 4-[3-[4-(1-methylethyl)phenyl]propoxy]quinazoline], the “RICE BLAST” value is listed as “++ (++ = 90-100% control at 400 ppm)”.
Same read-out and setting: with `Fc1ccc(-c2ccc(CCOc3ncnc4ccccc34)cc2)cc1` [Example 144, 4-[2-(4'-fluoro-1,1'-biphenyl)-4-ylethoxy]quinazoline] the entry was “+++ (+++ = 90-100% control at 100 ppm)”; with `FC(F)(F)c1cccc(C(F)(F)F)c1CCOc1ncnc2ccccc12` [Example 145, 4-[2-[2,6-bis(trifluoromethyl)phenyl]ethoxy]quinazoline], “+++ (+++ = 90-100% control at 100 ppm)”.

In a further assay the test system is Erysiphe graminis tritici (powdery mildew). The assay can be described thus: Greenhouse Test 1, foliar spray fungicide screen (POWD MDEW), host wheat. The class given is in vivo. As to conditions: disease control rating, 400 ppm (+++ at 100 ppm).
For the molecule `Fc1cccc2c(OCCc3cccc4ccccc34)ncnc12` [Example 141, 8-fluoro-4-[2-(1-naphthalenyl)ethoxy]quinazoline], the “POWD MDEW” value is “+ (+ = 20-89% control at 400 ppm)”.
For `CCC(COc1ncnc2ccccc12)c1ccc(-c2ccccc2)cc1` (centres unmarked) [Example 142, 4-[2-(1,1'-biphenyl)-4-ylbutoxy]quinazoline], the “POWD MDEW” value is “+ (+ = 20-89% control at 400 ppm)”.
Take `CC(C)c1ccc(CCCOc2ncnc3ccccc23)cc1` [Example 143, 4-[3-[4-(1-methylethyl)phenyl]propoxy]quinazoline]: the “POWD MDEW” value was “+ (+ = 20-89% control at 400 ppm)”.
Take `Fc1ccc(-c2ccc(CCOc3ncnc4ccccc34)cc2)cc1` [Example 144, 4-[2-(4'-fluoro-1,1'-biphenyl)-4-ylethoxy]quinazoline]: the “POWD MDEW” value is listed as “+++ (+++ = 90-100% control at 100 ppm)”.
`FC(F)(F)c1cccc(C(F)(F)F)c1CCOc1ncnc2ccccc12` [Example 145, 4-[2-[2,6-bis(trifluoromethyl)phenyl]ethoxy]quinazoline]: the “POWD MDEW” value is listed as “+ (+ = 20-89% control at 400 ppm)”.

The subject of a further assay is southern armyworm (Spodopetra eridania Cramer). In words: Mite/insect screen, sprayed squash leaves (SAW). The class given is in vivo. Conditions: Spodoptera eridania, percent mortality; spray rate 200 ppm; read-out: SAW RESULTS %. In a few lines: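 Percent mortality and phytotoxicity are the read-outs, assessed after standard exposure periods. Test solutions, made in 50:50 acetone/alcohol with two sulfonate/nonionic emulsifier blends and diluted in water, are sprayed to runoff on both leaf surfaces, which then dry for one hour.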
For the molecule `CC(C)c1ccc(CCCOc2ncnc3ccccc23)cc1` [Example 143, 4-[3-[4-(1-methylethyl)phenyl]propoxy]quinazoline], the mortality at 200 ppm came out at 80%.
On the same count and under the same terms, with `Fc1ccc(-c2ccc(CCOc3ncnc4ccccc34)cc2)cc1` [Example 144, 4-[2-(4'-fluoro-1,1'-biphenyl)-4-ylethoxy]quinazoline] the figure was 40%; with `FC(F)(F)c1cccc(C(F)(F)F)c1CCOc1ncnc2ccccc12` [Example 145, 4-[2-[2,6-bis(trifluoromethyl)phenyl]ethoxy]quinazoline], 0%.

Staying with this assay, now noted: Spodoptera eridania, percent mortality; spray rate 400 ppm; read-out: SAW RESULTS %.
Consider `Fc1cccc2c(OCCc3cccc4ccccc34)ncnc12` [Example 141, 8-fluoro-4-[2-(1-naphthalenyl)ethoxy]quinazoline], for which the mortality at 400 ppm was 0%.
`CCC(COc1ncnc2ccccc12)c1ccc(-c2ccccc2)cc1` (centres unmarked) [Example 142, 4-[2-(1,1'-biphenyl)-4-ylbutoxy]quinazoline]: the mortality at 400 ppm came to 0%.
As to `CC(C)c1ccc(CCCOc2ncnc3ccccc23)cc1` [Example 143, 4-[3-[4-(1-methylethyl)phenyl]propoxy]quinazoline], the mortality at 400 ppm is 0%.
In the case of `Fc1ccc(-c2ccc(CCOc3ncnc4ccccc34)cc2)cc1` [Example 144, 4-[2-(4'-fluoro-1,1'-biphenyl)-4-ylethoxy]quinazoline], the mortality at 400 ppm came to 0%.
Take `FC(F)(F)c1cccc(C(F)(F)F)c1CCOc1ncnc2ccccc12` [Example 145, 4-[2-[2,6-bis(trifluoromethyl)phenyl]ethoxy]quinazoline]: the mortality at 400 ppm was 0%.

Another assay concerns Southern corn rootworm (Diabrotica undecimpuctata howardi Barber). The assay can be described thus: Mite/insect screen, soil treatment (CRW). Conditions: Diabrotica; percent mortality; soil treatment, CRW rate 12.00 ppm; read-out: CRW RESULTS %. The class given is in vivo. An outline of the steps:
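Compounds dissolved in acetone/alcohol (50:50) with Toximul R/S emulsifiers, diluted with water. Soil (15 g, with presoaked corn seed) treated with 1 mL test solution, dried 6–12 h, then five 2–3 instar larvae added; held at 23°C. Percent mortality and phytotoxicity scored after standard exposure periods.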
Consider `CC(C)c1ccc(CCCOc2ncnc3ccccc23)cc1` [Example 143, 4-[3-[4-(1-methylethyl)phenyl]propoxy]quinazoline], for which the mortality at 12 ppm came out at 0%.
On the same count and under the same terms, the same measure for `Fc1ccc(-c2ccc(CCOc3ncnc4ccccc34)cc2)cc1` [Example 144, 4-[2-(4'-fluoro-1,1'-biphenyl)-4-ylethoxy]quinazoline]: 100%.
In the case of `FC(F)(F)c1cccc(C(F)(F)F)c1CCOc1ncnc2ccccc12` [Example 145, 4-[2-[2,6-bis(trifluoromethyl)phenyl]ethoxy]quinazoline], the mortality at 12 ppm was determined as 0%.

The same assay, now with this note: Diabrotica; percent mortality; soil treatment, CRW rate 24.00 ppm; read-out: CRW RESULTS %.
For `Fc1cccc2c(OCCc3cccc4ccccc34)ncnc12` [Example 141, 8-fluoro-4-[2-(1-naphthalenyl)ethoxy]quinazoline], the mortality at 24 ppm was 0%.
On to `CCC(COc1ncnc2ccccc12)c1ccc(-c2ccccc2)cc1` (centres unmarked) [Example 142, 4-[2-(1,1'-biphenyl)-4-ylbutoxy]quinazoline], for which the mortality at 24 ppm is 0%.
For `CC(C)c1ccc(CCCOc2ncnc3ccccc23)cc1` [Example 143, 4-[3-[4-(1-methylethyl)phenyl]propoxy]quinazoline], the mortality at 24 ppm is 0%.
For `Fc1ccc(-c2ccc(CCOc3ncnc4ccccc34)cc2)cc1` [Example 144, 4-[2-(4'-fluoro-1,1'-biphenyl)-4-ylethoxy]quinazoline], the mortality at 24 ppm was 40%.
Take `FC(F)(F)c1cccc(C(F)(F)F)c1CCOc1ncnc2ccccc12` [Example 145, 4-[2-[2,6-bis(trifluoromethyl)phenyl]ethoxy]quinazoline]: the mortality at 24 ppm was 0%.

The subject of a further assay is Botrytis cinerea (gray mold). In words: Greenhouse Test 1, foliar spray fungicide screen (GRAY MOLD), host grape berries. As to conditions: disease control rating, 400 ppm (+++ at 100 ppm). The class given is in vivo.
In the case of `Fc1cccc2c(OCCc3cccc4ccccc34)ncnc12` [Example 141, 8-fluoro-4-[2-(1-naphthalenyl)ethoxy]quinazoline], the “GRAY MOLD” value is recorded as “- (- = 0-19% control at 400 ppm)”.
On to `CCC(COc1ncnc2ccccc12)c1ccc(-c2ccccc2)cc1` (centres unmarked) [Example 142, 4-[2-(1,1'-biphenyl)-4-ylbutoxy]quinazoline], for which the “GRAY MOLD” value is listed as “- (- = 0-19% control at 400 ppm)”.
As to `CC(C)c1ccc(CCCOc2ncnc3ccccc23)cc1` [Example 143, 4-[3-[4-(1-methylethyl)phenyl]propoxy]quinazoline], the “GRAY MOLD” value was “- (- = 0-19% control at 400 ppm)”.
On to `Fc1ccc(-c2ccc(CCOc3ncnc4ccccc34)cc2)cc1` [Example 144, 4-[2-(4'-fluoro-1,1'-biphenyl)-4-ylethoxy]quinazoline], for which the “GRAY MOLD” value is “- (- = 0-19% control at 400 ppm)”.
For `FC(F)(F)c1cccc(C(F)(F)F)c1CCOc1ncnc2ccccc12` [Example 145, 4-[2-[2,6-bis(trifluoromethyl)phenyl]ethoxy]quinazoline], the “GRAY MOLD” value was “- (- = 0-19% control at 400 ppm)”.

The test system of the next assay is melon aphids (Aphis gossypii Glover). The assay can be described thus: Mite/insect screen, sprayed squash cotyledons (MA). The class given is in vivo. Conditions: Aphis gossypii, percent mortality; spray rate 200 ppm; read-out: MA RESULTS %. An outline of the steps:
as §1
In the case of `CC(C)c1ccc(CCCOc2ncnc3ccccc23)cc1` [Example 143, 4-[3-[4-(1-methylethyl)phenyl]propoxy]quinazoline], the mortality at 200 ppm turned out to be 0%.
As to `Fc1ccc(-c2ccc(CCOc3ncnc4ccccc34)cc2)cc1` [Example 144, 4-[2-(4'-fluoro-1,1'-biphenyl)-4-ylethoxy]quinazoline], the mortality at 200 ppm was 60%.
Consider `FC(F)(F)c1cccc(C(F)(F)F)c1CCOc1ncnc2ccccc12` [Example 145, 4-[2-[2,6-bis(trifluoromethyl)phenyl]ethoxy]quinazoline], for which the mortality at 200 ppm worked out at 80%.

Still in this assay, the particulars now being: Aphis gossypii, percent mortality; spray rate 400 ppm; read-out: MA RESULTS %.
In the case of `Fc1cccc2c(OCCc3cccc4ccccc34)ncnc12` [Example 141, 8-fluoro-4-[2-(1-naphthalenyl)ethoxy]quinazoline], the mortality at 400 ppm was found to be 0%.
Same read-out and setting: the same measure for `CCC(COc1ncnc2ccccc12)c1ccc(-c2ccccc2)cc1` (centres unmarked) [Example 142, 4-[2-(1,1'-biphenyl)-4-ylbutoxy]quinazoline]: 30%; for `CC(C)c1ccc(CCCOc2ncnc3ccccc23)cc1` [Example 143, 4-[3-[4-(1-methylethyl)phenyl]propoxy]quinazoline]: 0%; for `Fc1ccc(-c2ccc(CCOc3ncnc4ccccc34)cc2)cc1` [Example 144, 4-[2-(4'-fluoro-1,1'-biphenyl)-4-ylethoxy]quinazoline]: 100%.
In the case of `FC(F)(F)c1cccc(C(F)(F)F)c1CCOc1ncnc2ccccc12` [Example 145, 4-[2-[2,6-bis(trifluoromethyl)phenyl]ethoxy]quinazoline], the mortality at 400 ppm worked out at 80%.

(Values after EP0326329B1, “Quinazoline derivatives useful as insecticides” (Dow AgroSciences LLC, priority 1988, dated 1989).)
